Assay results from patent US8492341B2, “Amyloid-β binding peptides” (Alzyme Pty Ltd., priority 2006, dated 2013).

What was measured:
Aβ = Aβ (Homo sapiens, UniProt P05067); assay: Copper-induced Aβ oligomer generation (SDS-PAGE, WO2 immunoblot); type: biochemical; details: Aβ 5 uM, Cu+2 25 μM, 0-1000 μM peptide, 37 C, 24 hours; vs reverse peptide control
Procedure: Incubation of Aβ with copper generates cross-linked oligomeric species (Atwood et al., 2000: Cell Mol Biol, 46: 777-783; Atwood et al., 2004: Biochemistry, 43: 560-568). In this experiment, Aβ (5 uM) is incubated with Cu+2 (25 μM) and 0-1000 μM of the modified peptides at 37 C for 24 hours. After the incubation period, 20 ng is loaded onto an SDS-PAGE gel and immunoblotted with WO2 antibody. Compared to the reverse peptide control, all the modified peptides inhibited the generation of Aβ oligomers at various concentration.

[1] = parameters: species or system mice (129×1 strain); details: mouse, in vivo
Procedure: Another essential requirement of drug development is the ability of the peptide to cross the BBB and impact on targeted tissue. To measure the ability of 15merTNP and peptide analogue MP2 to cross the BBB, intracerebroventricular (i.c.v) delivery was assessed. The use of i.c.v injections on animal models allows for high doses to be delivered straight to the ventricular spaces where it can cross the parenchyma layer to the brain matter.
For i.c.v injections, control mice (129×1 strain) were anesthetized with intraperitoneal ketamine/xylazine at a dose of 10 ml/kg and then administered with 200 μg of either peptide (90 nmol). Both radioactive (^3H-labelled; hot) and non-radioactive (cold) was used to allow physiological doses of peptide to be delivered.
To determine whether the peptides had effectively penetrated into the brain parenchyma, a capillary depletion experiment was performed. After 25 min post injection the animal was sacrificed and the brain removed. This was homogenized and centrifuged for 10 min at 13000 rpm at 4° C. resulting in a supernatant containing predominately radioactivity from the cortex and a pellet with radioactivity from the capillaries and endothelium. A comparison of radioactivity in each sample was conducted to assess percentage of peptide movement into the cortex. The amount of radioactivity in the capillary pellet of mice that were perfused and not perfused with saline solution was compared to determine the percentage of peptide bound to the luminal surface of the capillaries and sequestered by brain endothelial cells.
A detailed necropsy was performed on each animal following perfusion to thoroughly assess peptide movement throughout peripheral organs, central nervous tissue and blood. […] Thus the concentration of labelled tritium could be measured per mass of sample and using this and the known ratio of non-labelled peptide present, the concentration of total peptide could be determined.
The pharmacokinetic profile of peptide analogue MP2 over four time points, post i.c.v injection into the CNS was determined. […]

human Aβ1-42 = human Aβ1-42 (Homo sapiens, UniProt P05067); assay: DCF fluorescence assay of H2O2 production (SOD-like activity) by human Aβ1-42; type: biochemical; details: P<0.001
Sequence of human Aβ1-42 (P05067 672-713): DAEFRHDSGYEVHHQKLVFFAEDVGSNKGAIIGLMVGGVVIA
Procedure: The three candidate peptides (15merTNP, 6merPLP and 6merMTM) were examined to determine whether they could attenuate Aβ's SOD-like activity in vitro. A DCF fluorescence assay was used to assess the efficacy of these peptides on altering the production of physiological (brain) concentrations (200 nM) of human Aβ1-42.
Aβ species were prepared and the assay run as described previously (i.e. Aβ1-42 at 200 nM and Copper and Dopamine concentrations remain unchanged). Peptide analogue MP2 (SEQ ID NO:2) was added to Aβ1-42+Cu solutions at ratios ranging from 0.005:1 to 10.0:1 (i.e. a ration of 0.005:1 would contain 1 nM of respective peptide). The peptide was dissolved in PBS pH7.5. The effect of MP2 on H2O2 production by human Aβ1-42 was determined in triplicate in three separate experiments (i.e. n=9) for doses ranging from 100 to 2000 nM (FIG. 1). These were compared against the level of H2O2 produced by human Aβ1-42 [test peptide analogue MP2+positive control peptide 15merTNP; three experiments done in triplicate, […]]. All data are presented as means±SEM.
For all assays run, the 15merTNP peptide (SEQ ID NO: 3), was included as a positive control for the assay and for comparing its activity with that of the modelled peptide analogue MP2. The effect of 15merTNP (200 nM) on H2O2 production by human Aβ1-42, was determined in triplicate in each of the 12 DCF assays (i.e. n=36) performed in this study.

Sequence of Aβ (P05067 672-713 limits assumed): as the sequence (P05067 672-713) above

For “Ac-NRTPQMLKR-NH2 [MP2, Ac-Asn-Arg-Thr-Pro-Gln-Met-Leu-Lys-Arg-NH2]”, the “inhibition of Aβ oligomer formation” value (Aβ) was “most potent”, the “crossing of the blood brain barrier” value [1] was “poorly” and the “peptide removed from the CNS” value [1] was 99%. The “H2O2 levels produced by human Aβ1-42” value (human Aβ1-42; 100 and 200 nM peptide) was “significant reduction” and the “H2O2 levels produced by human Aβ1-42” value (human Aβ1-42; peptide doses ≧1000 nM) was “significantly increased”.
